Test systems include HCT-15 colon; HOP-62 NSCLC; HT29 colon; MOLT-4 leukemia; OVCAR-4 ovarian; SNB-19 CNS; SNB-75 CNS; TK-10 renal; UACC-257 melanoma; SF-295 CNS.
Common to all, as to experiment: NCI anticancer screen, dose series, 48 h

This passage reports TGI and GI50 results from PubChem BioAssay (NCI).

Structures are written as SMILES.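 Growth conditions: 96-well plates. Treatment: test compound, 48 hours, 5 concentrations. Analysis: linear interpolation between bracketing concentrations; unreached endpoints set to highest concentration. GI50: concentration for 50% inhibition of growth. The concentration for full growth arrest is given as TGI.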

`Cc1cccc(NC(N)=S)c1`: the TGI in the test on HCT-15 colon, in the test with HOP-62 NSCLC, in the test on HT29 colon, in the test on MOLT-4 leukemia, with OVCAR-4 ovarian and with SNB-19 CNS was greater than 100 µM each time. Besides, the TGI in the test with SNB-75 CNS, in the test on TK-10 renal and in the test on UACC-257 melanoma was greater than 100 µM in each case.
For the compound `O=C(O)\C=C/C=C/C=C/C=C/C(=O)O`, the TGI in the test with HCT-15 colon, with HOP-62 NSCLC, in the test on HT29 colon, in the test with MOLT-4 leukemia, in the test on OVCAR-4 ovarian and with SF-295 CNS was greater than 100 µM each time. The TGI in the test on SNB-19 CNS, in the test on SNB-75 CNS and in the test on UACC-257 melanoma was greater than 100 µM in each case.
Turning to `COc1ccc(C(=O)NNC(=O)c2nsc3ccccc23)cc1`, the TGI with HCT-15 colon, in the test on HOP-62 NSCLC, in the test with HT29 colon, with MOLT-4 leukemia, with OVCAR-4 ovarian and in the test on SNB-19 CNS was greater than 100 µM each time. Moreover, the TGI in the test with TK-10 renal and in the test with UACC-257 melanoma was greater than 100 µM in each case.
With `N=C(N)SC(c1ccccc1)c1ccccc1`, the TGI is 40.7 µM with HCT-15 colon; 41.1 µM in the test with HOP-62 NSCLC; 34.4 µM in the test with HT29 colon; 56.6 µM in the test on MOLT-4 leukemia; 37.6 µM in the test with OVCAR-4 ovarian; 34.7 µM with SF-295 CNS. Further, the TGI in the test with SNB-19 CNS was greater than 100 µM; in the test on TK-10 renal it was 28.2 µM; in the test on UACC-257 melanoma, 28.4 µM.
Consider `Cn1ncc2c(=O)[nH]c(-c3ccccc3)nc21`, for which the TGI in the test on HCT-15 colon, with HT29 colon, in the test on MOLT-4 leukemia, in the test with OVCAR-4 ovarian, in the test on SF-295 CNS and with SNB-19 CNS was greater than 100 µM in each case. In addition, the TGI in the test with SNB-75 CNS, with TK-10 renal and in the test on UACC-257 melanoma was greater than 100 µM in each case.
For `NS(=O)(=O)c1ccc(C(=O)O)cc1`, the TGI with HCT-15 colon, in the test with HOP-62 NSCLC, with HT29 colon, in the test on MOLT-4 leukemia, in the test on OVCAR-4 ovarian and with SF-295 CNS was greater than 100 µM in each case. The TGI in the test with SNB-19 CNS and in the test on TK-10 renal was greater than 100 µM each time.
Consider `COc1ccc2c(c1)C(=O)c1c-2n(CCCCl)c(=O)c2cc([N+](=O)[O-])ccc12`, for which the GI50 with HCT-15 colon is 0.0575 µM; in the test on HT29 colon, 0.0917 µM; with MOLT-4 leukemia it was less than 0.0211 µM; with OVCAR-4 ovarian it was 0.224 µM; in the test with SF-295 CNS, less than 0.01 µM; in the test on SNB-19 CNS it was less than 0.0505 µM. Also, the GI50 with TK-10 renal was 0.639 µM; with UACC-257 melanoma, 1.59 µM. In addition, the TGI in the test on HCT-15 colon was greater than 100 µM; in the test on HT29 colon, greater than 100 µM; with OVCAR-4 ovarian it was 33.6 µM; with SF-295 CNS it was 0.21 µM; with SNB-19 CNS, greater than 100 µM; with SNB-75 CNS it was greater than 100 µM. Also, the TGI in the test on UACC-257 melanoma is 98.5 µM.
On to `CC(C)(c1ccccc1)c1ccc(Oc2ccc3c(c2)-c2nc-3nc3[nH]c(nc4nc(nc5[nH]c(n2)c2ccc(Oc6ccc(C(C)(C)c7ccccc7)cc6)cc52)-c2cc(Oc5ccc(C(C)(C)c6ccccc6)cc5)ccc2-4)c2ccc(Oc4ccc(C(C)(C)c5ccccc5)cc4)cc32)cc1`, for which the TGI with HOP-62 NSCLC is greater than 100 µM; with HT29 colon, greater than 100 µM; in the test with MOLT-4 leukemia, greater than 100 µM; with SNB-19 CNS, greater than 100 µM; in the test with SNB-75 CNS it was 67.8 µM; with TK-10 renal it was greater than 100 µM. This compound also had a TGI in the test on UACC-257 melanoma greater than 100 µM.
In the case of `Nc1ccc([As](=O)(O)O)cc1`, the TGI in the test on HCT-15 colon, in the test on HOP-62 NSCLC, in the test with HT29 colon, with MOLT-4 leukemia, in the test with OVCAR-4 ovarian and in the test on SF-295 CNS was greater than 100 µM each time. For the same compound, the TGI with SNB-19 CNS, in the test with SNB-75 CNS, in the test with TK-10 renal and with UACC-257 melanoma was greater than 100 µM in each case.
For the compound `Cc1nc2ccccc2c(=O)n1Nc1ccc(C(=O)O)cc1`, the TGI in the test with HCT-15 colon, in the test on HOP-62 NSCLC, in the test on HT29 colon, with MOLT-4 leukemia, with OVCAR-4 ovarian and with SF-295 CNS was greater than 100 µM throughout. Besides, the TGI in the test with SNB-19 CNS, with SNB-75 CNS and in the test on UACC-257 melanoma was greater than 100 µM in each case.
With `COc1cc2c(cc1OCCCOc1cc3c(cc1OC)C(=O)N1CC(F)(F)C[C@H]1C=N3)N=C[C@@H]1CC(F)(F)CN1C2=O`, the GI50 with HCT-15 colon is 10.4 µM; in the test with HOP-62 NSCLC it was 0.206 µM; in the test on HT29 colon it was 0.641 µM; with MOLT-4 leukemia, 0.0383 µM; in the test on OVCAR-4 ovarian, 3.45 µM; with SF-295 CNS, 0.0635 µM. Moreover, the GI50 is 0.446 µM in the test on SNB-19 CNS, 1.58 µM in the test with SNB-75 CNS, 3.56 µM with TK-10 renal and 2 µM with UACC-257 melanoma. Further, the TGI in the test on HCT-15 colon was determined as 50.6 µM; in the test with HOP-62 NSCLC it was 2.59 µM; in the test on HT29 colon it was 13 µM; with MOLT-4 leukemia, 1.72 µM; with OVCAR-4 ovarian, 17.4 µM; with SF-295 CNS, 0.539 µM. The TGI with SNB-19 CNS came out at 18.3 µM; with SNB-75 CNS, 18.4 µM; in the test on TK-10 renal, 12.5 µM; with UACC-257 melanoma it was 5.46 µM.
For the compound `O=C1CC(c2ccccc2)NCCCCN2CC(CN1)C(C(O)c1ccccc1)C2=O` (stereo unspecified), the TGI in the test with HCT-15 colon, in the test on HOP-62 NSCLC, in the test with HT29 colon, with MOLT-4 leukemia, with OVCAR-4 ovarian and in the test with SF-295 CNS was greater than 100 µM in each case. Further, the TGI with SNB-19 CNS, in the test with SNB-75 CNS, in the test with TK-10 renal and in the test on UACC-257 melanoma was greater than 100 µM throughout.
Turning to `CC1(C)CCc2cc3c(cc2O1)OC(C)(C)CC3=O`, the TGI in the test on HCT-15 colon, in the test with HOP-62 NSCLC, in the test on HT29 colon, with MOLT-4 leukemia, in the test with OVCAR-4 ovarian and with SF-295 CNS was greater than 100 µM in each case. In the test with SNB-75 CNS, this compound gave a TGI greater than 100 µM.
Take `Cc1cc(N2CCCCC2)nc(NCc2cc(Nc3ccnc4cc(Cl)ccc34)ccc2F)n1`: the GI50 in the test on HCT-15 colon is 1.84 µM; in the test on HOP-62 NSCLC, 1.4 µM; in the test on HT29 colon, 0.795 µM; in the test on MOLT-4 leukemia, 1.67 µM; in the test with OVCAR-4 ovarian it was 1.39 µM; in the test on SF-295 CNS, 1.32 µM. Besides, the GI50 is 1.87 µM in the test on SNB-19 CNS, 1.39 µM with SNB-75 CNS, 1.96 µM with TK-10 renal and 1.32 µM in the test on UACC-257 melanoma. Further, the TGI came out at 3.8 µM in the test with HCT-15 colon; 2.89 µM with HOP-62 NSCLC; 2.21 µM in the test with HT29 colon; 4.82 µM in the test on MOLT-4 leukemia; 2.95 µM with OVCAR-4 ovarian; 2.7 µM in the test on SF-295 CNS. Besides, the TGI with SNB-19 CNS was 6.33 µM; with SNB-75 CNS, 2.83 µM; with TK-10 renal it was 3.67 µM; with UACC-257 melanoma, 2.85 µM.
On to `CCc1cc(C)cc2[n+]1CC=C2C`, for which the TGI in the test on HOP-62 NSCLC, in the test with HT29 colon, with OVCAR-4 ovarian, with SF-295 CNS, in the test on SNB-19 CNS and with SNB-75 CNS was greater than 100 µM each time. The TGI in the test on TK-10 renal and in the test with UACC-257 melanoma was greater than 100 µM in each case.
As for `CC1(C)CCCC2(C)C3=C(CCC12)C(=O)OC3` (stereo unspecified), the TGI in the test with HCT-15 colon, in the test with HOP-62 NSCLC, in the test on HT29 colon, in the test with MOLT-4 leukemia, in the test on OVCAR-4 ovarian and in the test on SF-295 CNS was greater than 100 µM each time. Further, the TGI with SNB-75 CNS, with TK-10 renal and in the test on UACC-257 melanoma was greater than 100 µM each time.
Regarding `CCCCCCCCCCCCCCC(C(=O)[O-])[n+]1ccccc1` (stereo unspecified), the TGI in the test on HCT-15 colon, in the test on HOP-62 NSCLC, in the test with HT29 colon, in the test on MOLT-4 leukemia, in the test with OVCAR-4 ovarian and with SF-295 CNS was greater than 100 µM throughout. Besides, the TGI in the test on SNB-19 CNS is greater than 100 µM; in the test on SNB-75 CNS, greater than 100 µM; with TK-10 renal it was 28.8 µM; in the test with UACC-257 melanoma, greater than 100 µM.
On to `CN(C)C=O.CN(C)C=O.CN1C(C(=O)Nc2ccccn2)=C([O-])c2ccccc2S1(=O)=O.CN1C(C(=O)Nc2ccccn2)=C([O-])c2ccccc2S1(=O)=O.[Cu+2]`, for which the TGI was greater than 100 µM in the test with HCT-15 colon; 78.8 µM with HOP-62 NSCLC; greater than 100 µM in the test with HT29 colon; 78.7 µM in the test with OVCAR-4 ovarian; greater than 100 µM in the test on SF-295 CNS; 41.2 µM with SNB-19 CNS. The TGI in the test on SNB-75 CNS is 49.5 µM; with TK-10 renal it was greater than 100 µM; with UACC-257 melanoma, greater than 100 µM.
